ChEMBL document CHEMBL1201862, “PubChem BioAssay data set” (2004)
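All cell lines were grown in 96-well plates and treated with compound for 48 hours. At the GI50, growth is halved.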 Active and inactive are the calls of the source. No stated cut-off is given here; in the data, active = GI50 up to about 1.1 µM and inactive = higher.

Columns and labels:
Assay in all cases: DTP human tumour cell line panel, 48 h
SF-268 = test system: SF-268
SK-MEL-28 = test system: SK-MEL-28
SF-539 = test system: SF-539
MDA-MB-231 = test system: MDA-MB-231
NCI-H226 = test system: NCI-H226
HCT-15 = test system: HCT-15
NCI/ADR-RES = test system: NCI/ADR-RES
IGROV-1 = test system: IGROV-1
EKVX = test system: EKVX
COLO 205 = test system: COLO 205
T47D = test system: T47D
HCC 2998 = test system: HCC 2998
Hs-578T = test system: Hs-578T
A549 = test system: A549
U-251 = test system: U-251
SK-OV-3 = test system: SK-OV-3
OVCAR-3 = test system: OVCAR-3
NCI-H522 = test system: NCI-H522
SW-620 = test system: SW-620
MOLT-4 = test system: MOLT-4
SK-MEL-5 = test system: SK-MEL-5
K562 = test system: K562
HT-29 = test system: HT-29
OVCAR-5 = test system: OVCAR-5
SK-MEL-2 = test system: SK-MEL-2
SF-295 = test system: SF-295
NCI-H23 = test system: NCI-H23
UACC-62 = test system: UACC-62
RXF 393 = test system: RXF 393
KM12 = test system: KM12
MDA-MB-435 = test system: MDA-MB-435
DU-145 = test system: DU-145
786-0 = test system: 786-0
Malme-3M = test system: Malme-3M
HOP-62 = test system: HOP-62
A498 = test system: A498
MDA-N = test system: MDA-N
OVCAR-4 = test system: OVCAR-4
UACC-257 = test system: UACC-257
SNB-75 = test system: SNB-75
LOX IMVI = test system: LOX IMVI
CAKI-1 = test system: CAKI-1
M14 = test system: M14
TK-10 = test system: TK-10
HOP-92 = test system: HOP-92
CCRF-CEM = test system: CCRF-CEM
NCI-H460 = test system: NCI-H460
SNB-19 = test system: SNB-19
HCT-116 = test system: HCT-116
SN12C = test system: SN12C
UO-31 = test system: UO-31
ACHN = test system: ACHN
OVCAR-8 = test system: OVCAR-8

Cc1n[nH]c(=O)n1/N=C/c1ccncc1
GI50 (SF-268): > 100 µM (inactive) | GI50 (SK-MEL-28): > 100 µM (inactive) | GI50 (SF-539): > 100 µM (inactive) | GI50 (MDA-MB-231): > 100 µM (inactive) | GI50 (NCI-H226): > 100 µM (inactive) | GI50 (HCT-15): > 100 µM | GI50 (NCI/ADR-RES): > 100 µM (inactive) | GI50 (IGROV-1): > 100 µM (inactive) | GI50 (EKVX): > 100 µM (inactive) | GI50 (COLO 205): > 100 µM (inactive) | GI50 (T47D): > 100 µM (inactive) | GI50 (HCC 2998): > 100 µM (inactive) | GI50 (Hs-578T): > 100 µM (inactive) | GI50 (A549): > 100 µM (inactive) | GI50 (U-251): > 100 µM (inactive) | GI50 (SK-OV-3): > 100 µM (inactive) | GI50 (OVCAR-3): > 100 µM (inactive) | GI50 (NCI-H522): > 100 µM (inactive) | GI50 (SW-620): > 100 µM (inactive) | GI50 (MOLT-4): > 100 µM (inactive) | GI50 (SK-MEL-5): > 100 µM (inactive) | GI50 (K562): > 100 µM (inactive) | GI50 (HT-29): > 100 µM (inactive) | GI50 (OVCAR-5): > 100 µM (inactive) | GI50 (SK-MEL-2): > 100 µM (inactive) | GI50 (SF-295): > 100 µM (inactive) | GI50 (NCI-H23): > 100 µM (inactive) | GI50 (UACC-62): > 100 µM (inactive) | GI50 (RXF 393): > 100 µM (inactive) | GI50 (KM12): > 100 µM (inactive) | GI50 (MDA-MB-435): > 100 µM (inactive) | GI50 (DU-145): > 100 µM (inactive) | GI50 (786-0): > 100 µM (inactive) | GI50 (Malme-3M): > 100 µM (inactive) | GI50 (HOP-62): > 100 µM (inactive) | GI50 (A498): > 100 µM (inactive) | GI50 (MDA-N): > 100 µM (inactive) | GI50 (OVCAR-4): > 100 µM (inactive) | GI50 (UACC-257): > 100 µM (inactive) | GI50 (SNB-75): > 100 µM (inactive) | GI50 (LOX IMVI): > 100 µM (inactive) | GI50 (CAKI-1): > 100 µM (inactive) | GI50 (M14): > 100 µM (inactive) | GI50 (TK-10): > 100 µM (inactive) | GI50 (HOP-92): > 100 µM (inactive) | GI50 (CCRF-CEM): > 100 µM (inactive) | GI50 (NCI-H460): > 100 µM (inactive) | GI50 (SNB-19): > 100 µM (inactive) | GI50 (HCT-116): > 100 µM (inactive) | GI50 (SN12C): > 100 µM (inactive) | GI50 (UO-31): > 100 µM (inactive) | GI50 (ACHN): > 100 µM (inactive) | GI50 (OVCAR-8): > 100 µM (inactive)
